Earlier results on one substance are cited in publication PMC6597953, “Taking Advantage of the Selectivity of Histone Deacetylases and Phosphodiesterase Inhibitors to Design Better Therapeutic Strategies to Treat Alzheimer’s Disease” (Frontiers in Aging Neuroscience, 2019).

Holding throughout (type): biochemical
In one series the target is T1, HDAC6 (Homo sapiens, UniProt Q9UBN7).
T1 sequence (Q9UBN7 1-1215): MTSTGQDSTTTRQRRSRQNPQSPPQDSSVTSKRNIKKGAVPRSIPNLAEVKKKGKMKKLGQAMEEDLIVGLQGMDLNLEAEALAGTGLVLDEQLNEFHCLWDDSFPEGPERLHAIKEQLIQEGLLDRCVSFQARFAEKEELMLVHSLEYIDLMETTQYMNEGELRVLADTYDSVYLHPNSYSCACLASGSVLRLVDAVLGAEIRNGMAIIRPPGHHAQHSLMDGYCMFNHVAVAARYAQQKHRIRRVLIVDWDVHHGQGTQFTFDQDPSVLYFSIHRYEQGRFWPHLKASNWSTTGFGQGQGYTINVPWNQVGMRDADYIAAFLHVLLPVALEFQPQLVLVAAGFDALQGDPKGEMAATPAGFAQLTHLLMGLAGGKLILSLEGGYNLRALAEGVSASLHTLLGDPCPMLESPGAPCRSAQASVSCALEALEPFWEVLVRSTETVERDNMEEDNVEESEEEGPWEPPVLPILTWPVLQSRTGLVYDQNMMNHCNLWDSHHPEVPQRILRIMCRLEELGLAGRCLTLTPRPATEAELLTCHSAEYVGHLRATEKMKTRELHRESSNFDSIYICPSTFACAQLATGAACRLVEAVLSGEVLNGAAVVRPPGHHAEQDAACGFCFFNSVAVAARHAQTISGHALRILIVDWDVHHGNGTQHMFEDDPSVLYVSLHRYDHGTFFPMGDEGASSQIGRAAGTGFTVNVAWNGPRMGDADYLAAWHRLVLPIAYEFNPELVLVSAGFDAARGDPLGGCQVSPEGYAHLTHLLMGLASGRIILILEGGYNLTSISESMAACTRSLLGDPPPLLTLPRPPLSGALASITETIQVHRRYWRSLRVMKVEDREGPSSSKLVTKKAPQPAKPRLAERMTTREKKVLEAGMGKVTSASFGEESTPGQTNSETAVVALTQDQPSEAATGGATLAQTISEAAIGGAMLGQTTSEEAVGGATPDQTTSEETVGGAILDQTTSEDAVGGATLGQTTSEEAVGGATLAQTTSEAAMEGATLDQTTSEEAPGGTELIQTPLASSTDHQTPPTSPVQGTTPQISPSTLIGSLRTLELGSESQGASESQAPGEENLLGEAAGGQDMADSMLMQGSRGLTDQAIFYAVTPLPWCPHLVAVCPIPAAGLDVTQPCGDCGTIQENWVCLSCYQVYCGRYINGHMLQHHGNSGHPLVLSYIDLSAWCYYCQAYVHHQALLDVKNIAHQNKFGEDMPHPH
Put plainly: IC50 of HDAC6 inhibition (assay not described); supported by alpha-tubulin acetylation western blot in SH-SY5Y cells. On the technique in general: Immunoblotting shows a protein as a band on a membrane.

The target of another series is HDAC1 (Homo sapiens, UniProt Q13547). Nature of the series: IC50 of HDAC1 inhibition (assay not described); AcH3K9 western blot in SH-SY5Y cells at […].
In another series the target is HDAC2 (Homo sapiens, UniProt Q92769). Nature of the series: IC50 of HDAC2 inhibition (assay not described).
Another series concerns the target T2, PDE9 (Homo sapiens, UniProt O76083).
T2 construct: gene PDE9A
Nature of the series: IC50 of PDE9 inhibition (assay not described); supported by pCREB western blot in SH-SY5Y cells.

Chain of HDAC2 (Q92769 whole entry): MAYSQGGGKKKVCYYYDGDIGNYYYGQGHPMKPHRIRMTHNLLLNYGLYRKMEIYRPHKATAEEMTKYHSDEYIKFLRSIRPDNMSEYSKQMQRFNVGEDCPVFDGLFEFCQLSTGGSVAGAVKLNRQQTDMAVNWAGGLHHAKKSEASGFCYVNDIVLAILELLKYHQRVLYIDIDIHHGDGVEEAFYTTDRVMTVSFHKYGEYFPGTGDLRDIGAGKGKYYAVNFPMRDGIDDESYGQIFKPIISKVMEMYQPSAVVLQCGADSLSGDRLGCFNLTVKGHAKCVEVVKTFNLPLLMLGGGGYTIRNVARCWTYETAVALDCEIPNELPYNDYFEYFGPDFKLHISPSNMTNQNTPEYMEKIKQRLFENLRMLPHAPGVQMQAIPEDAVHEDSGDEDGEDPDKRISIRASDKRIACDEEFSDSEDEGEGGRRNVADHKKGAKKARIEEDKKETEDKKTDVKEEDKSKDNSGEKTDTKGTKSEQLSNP
Chain of HDAC1 (Q13547 whole entry): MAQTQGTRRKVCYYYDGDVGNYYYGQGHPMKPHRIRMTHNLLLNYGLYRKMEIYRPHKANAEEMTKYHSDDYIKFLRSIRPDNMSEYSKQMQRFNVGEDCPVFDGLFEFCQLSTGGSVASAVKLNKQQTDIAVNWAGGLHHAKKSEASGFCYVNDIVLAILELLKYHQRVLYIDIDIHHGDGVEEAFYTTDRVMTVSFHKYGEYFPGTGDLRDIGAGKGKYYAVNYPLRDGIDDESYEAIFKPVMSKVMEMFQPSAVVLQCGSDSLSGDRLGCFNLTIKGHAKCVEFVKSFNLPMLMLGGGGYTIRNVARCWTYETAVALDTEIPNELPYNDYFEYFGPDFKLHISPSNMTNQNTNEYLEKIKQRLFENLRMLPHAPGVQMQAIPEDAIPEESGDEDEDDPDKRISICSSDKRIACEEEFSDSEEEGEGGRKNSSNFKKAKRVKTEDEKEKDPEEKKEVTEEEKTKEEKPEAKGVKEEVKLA
T2 sequence (O76083 whole entry): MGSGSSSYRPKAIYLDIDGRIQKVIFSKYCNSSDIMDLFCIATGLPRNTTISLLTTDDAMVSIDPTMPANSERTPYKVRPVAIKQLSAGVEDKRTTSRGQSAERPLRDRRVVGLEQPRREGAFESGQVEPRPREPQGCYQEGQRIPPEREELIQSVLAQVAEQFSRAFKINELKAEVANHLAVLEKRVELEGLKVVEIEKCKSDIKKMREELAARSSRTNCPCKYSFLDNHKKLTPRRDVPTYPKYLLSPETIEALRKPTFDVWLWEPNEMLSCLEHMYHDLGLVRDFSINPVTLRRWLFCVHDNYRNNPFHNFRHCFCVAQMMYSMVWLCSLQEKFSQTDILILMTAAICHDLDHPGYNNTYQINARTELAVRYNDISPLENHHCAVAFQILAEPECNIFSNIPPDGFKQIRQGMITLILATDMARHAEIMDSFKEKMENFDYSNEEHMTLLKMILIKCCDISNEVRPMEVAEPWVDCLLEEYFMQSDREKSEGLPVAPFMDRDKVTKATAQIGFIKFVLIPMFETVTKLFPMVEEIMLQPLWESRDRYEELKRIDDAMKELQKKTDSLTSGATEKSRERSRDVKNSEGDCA

In the case of CM-695, the IC50 at HDAC6 is 40 nM; on HDAC1 it was 593 nM; at HDAC2, 3530 nM; at PDE9 it was 107 nM.

The IC50 is the point on the concentration scale where inhibition reaches its midpoint.
